Marks after values point to notes of the source that are not given here.
Assays:
[1] = test system: men and women with age-related osteoporosis; details: 20-30% of cortical and cancellous bone lost; cited from earlier work
[2] = test system: rats; details: cited from earlier work
[3] = test system: Male Swiss-Webster mice; assay: Cortical bone dynamic histomorphometry in the femur (calcein labels); assay type: in vivo, mouse; details: femoral midshaft, 2.5 nmol/kg s.c., 8 weeks, SD in parentheses
Text: (§1) All handling procedures and experiments were approved by the Michigan Technological University Institutional Animal Care and Use Committees. Male Swiss-Webster mice were obtained from a commercial breeder (Harlan, Indianapolis, Ind.). All animals were maintained on a 12-h light/12-h dark cycle, and were permitted free access to water and food containing 0.95% calcium (Purina Rodent Diet #5001).
(§2) In the first experiment, 11 wk old mice received daily (5 days/week) subcutaneous injections of 2.5 nmol/kg PTH 1-34 (hPTH 1-34 or bbPTH 1-34) or acidic saline vehicle (0.15 M NaCl+0.001 N HCl) for 8 weeks (n=10 mice/group). In the second experiment, 12 wk old mice received daily (5 days/week) subcutaneous injections of 2.5 nmol/kg PTH 1-84 (hPTH 1-84 or bbPTH 1-84) or acidic saline vehicle for 8 weeks (n=10 mice/group). All PTH- and vehicle-treated animals received subcutaneous injections of calcein at a dosage of 10 mg/kg on days 12 and 3 before death to label mineralizing bone surfaces. Twenty-four hours following the last treatment injection, mice were sacrificed by carbon dioxide asphyxiation. Right femurs were fixed in 10% neutral buffered formalin. Left femurs were wrapped in 0.15M saline soaked gauze and stored at −20 deg C. Left tibias were stored in 70% ethanol at 4 deg C.
(§3) Following the bending test, the left femoral diaphyses were ashed in a furnace to determine mineral content (ash fraction). Right femoral diaphyses were embedded in methyl methacrylate and sectioned with a diamond saw to expose the midshaft cross-section. Images of the midshaft cross-sections were captured using a digital camera (Spot Insight QE, Diagnostic Instruments Inc., Sterling Heights, Mich.), and Scion Image analysis software (Scion Corporation, Frederick, Md.) was used to calculate the periosteal area (Ps.Ar), cortical area (Ct.Ar), and endosteal area (Es.Ar) for each sample. Cortical bone thickness (Ct.Th) was calculated in 0.1 mm increments for each anatomical quadrant and for the entire cross-section using image analysis software (Bioquant Osteo, Nashville, Tenn.). Thin sections from the midshaft of the right femur were ground to a thickness of 50 μm and mounted on glass slides. Images of calcein labels were captured at 100× magnification and periosteal and endosteal mineral apposition rates (Ps.MAR and Es.MAR, respectively) and mineralizing surfaces (Ps.MS/BS and Es.MS/MS) were quantified (Bioquant) for each femur.
(§4) All bone geometrical, architectural, and mineral properties were normalized by body mass to account for potential variation in animal size (31-33). Trabecular bone properties quantified by micro-computed tomography were compared by ANOVA between vehicle, bear, and human PTH-treated mice within each study (PTH 1-34 or PTH 1-84). The microCT parameters were not directly compared between the PTH 1-34 and PTH 1-84 studies because analyses were conducted on different microCT machines. For all other bone properties, all six experimental groups (from both the PTH 1-34 and PTH 1-84 studies) were compared with ANOVA and Fisher's PLSD. A significance of p<0.05 was used for all comparisons.

[4] = test system: human fetal osteoblasts (hFOB); assay: Serum starvation cell death in human fetal osteoblasts (trypan blue); assay type: cell-based; details: 100 nM for 1 hour before serum starvation for 24 hours, preliminary studies, p<0.0001
Protocol: All PTH peptides used in the current study attenuated apoptotic signaling induced by serum starvation in vitro (FIG. 19). bbPTH 1-34 reduced apoptotic signaling in pre-osteoblastic cells more than human PTH (FIG. 19). Recently, we found similar results with preliminary studies in human fetal osteoblasts (hFOB). Serum starvation for 24 hours increased cell death in hFOB (confirmed via trypan blue staining), but pretreatment of hFOB cells with 100 nM PTH 1-34 or 1-84 for 1 hour before starvation reduced percent cell death (percentage change in cell death compared to vehicle pretreatment, hPTH 1-34: −18%, bbPTH 1-34: −25%, hPTH 1-84: −17%, bbPTH 1-84: −21%; p<0.0001; data not shown). […] However, although bbPTH 1-84 was less anti-apoptotic than bbPTH 1-34 and hPTH 1-34 in vitro (FIG. 19) it caused the greatest increases in cortical and trabecular bone mass in the in vivo studies (Table 1, Table 2).

[5] = test system: Male Swiss-Webster mice; assay: Cortical bone mineral content (ash fraction) and geometrical properties of the femur; assay type: in vivo, mouse; details: femoral midshaft, 2.5 nmol/kg s.c., 8 weeks, normalized by body mass, SD in parentheses
Text: as §1, §2, §3, §4

[6] = test system: Male Swiss-Webster mice; assay: Trabecular bone structure and mineralization in the proximal tibia (micro-computed tomography); assay type: in vivo, mouse; details: PTH 1-84 study: 12 wk old mice, 8 weeks, proximal tibia, normalized by body mass
Text: as §1, §2
Trabecular bone architecture and mineralization were evaluated in the left proximal tibial metaphysis (0.7 mm distal to the growth plate) using micro-computed tomography. Tibias from experiment 1 were scanned on a μCT35 scanner (Scanco Medical AG, Basserdorf, Switzerland) at 3.5 μm (high) resolution. Tibias from experiment 2 were scanned on a μCT40 scanner (Scanco Medical AG, Basserdorf, Switzerland) at 7 μm (high) resolution. Bones were scanned in 70% ethanol. Trabecular bone volume fraction (BV/TV, %), trabecular number (Tb.N, mm^−1), trabecular thickness (Tb.Th, m), trabecular separation (Tb.Sp, m), trabecular apparent mineral density (App.Mn.Dn, mgHA/cm^3) and trabecular tissue mineral density (Mat.Mn.Dn, mgHA/cm^3) were computed using the manufacturer's software.
as §4

[7] = test system: MC3T3 subclone 4 cells; assay: PTH attenuation of serum-starvation induced caspase-3/7 activity; assay type: cell-based, mouse; details: all concentrations pooled; bbPTH 1-34 vs hPTH 1-34 p=0.006, vs either PTH 1-84 p≦0.018; bbPTH 1-84 vs hPTH 1-84 p=0.090
Protocol: MC3T3 subclone 4 cells (ATCC, CRL-2593) were maintained in standard culture media (89% alpha-minimum essential media, 1% penicillin/streptomycin, and 10% FBS) at 37° C. in 5% CO2. Cells were not used beyond passage 30.
MC3T3 cells were seeded at a density of 20,000 cells/well in 96-well plates and allowed to attach overnight. Culture media was then aspirated and replaced with 100 μl of culture media containing 10% FBS and either vehicle (PBS) or PTH (10-100 nM) for one hour, after which media was aspirated and cells were washed with PBS to remove residual serum. To induce apoptosis, cells were incubated in control or serum-free media for 6 hours. Replacement media contained 89% alpha-minimum essential media, 1% penicillin/streptomycin, and either 10% FBS (control media) or 0% FBS (starvation media). After starvation, media was aspirated, cells were washed with PBS, and 50 μl of fresh PBS was added to each well. Caspase-3/7 activity was determined by cleavage of a DEVD substrate (Caspase-Glo 3/7 Assay, #G8093, Promega Corporation). Measured luminescence values were fit to a standard curve prepared with known concentrations of recombinant human caspase-3 (#SE-169, BIOMOL Research Laboratories Inc.). Five wells of each treatment were run per 96-well plate, and procedures were repeated on a minimum of 10 plates. […]

[8] = test system: ovariectomized (OVX) Sprague-Dawley rats; assay: In vivo effects of human PTH1-84 and bear PTH1-84 in ovariectomized rats; set-up: species or system rat; details: 2.5 nmol/kg s.c., eight weeks
Protocol: Thirty female, 2.5-month old Sprague-Dawley rats were ovariectomized (OVX) at the commercial breeding facility The OVX animals were randomly assigned into 3 groups of 10 animals per group for further experiments.
Six weeks after the OVX procedure, the rats were injected subcutaneously for an eight-week period (daily for five days per week) with vehicle (saline) or 2.5 nmol/kg bear or human PTH1-84. Animals were euthanized 24 hours after the last injection. Samples were obtained from the euthanized animals for further analysis.
Femur bending strength and proximal tibia trabecular architecture were investigated as described in Example 12.

[9] = test system: procollagen-1 mRNA; details: Nasu et al., 1998; cited from earlier work

ALX1-11: recombinant human PTH 1-84 (NPS Pharmaceuticals), under consideration for approval by the FDA
bone recovered during the suggested treatment regimen [1]: 8% | osteosarcoma in rats ([2]; long-term usage): generates osteosarcoma

human PTH1-84 [hPTH 1-84]
Endosteal MAR [3]: 0.62 ( ).39) | Endosteal MS/BS [3]: 32.1 (19.4) | Periosteal MAR [3]: 0.60 (0.40) | Periosteal MS/BS [3]: 20.2 (16.7) | percentage change in cell death compared to vehicle pretreatment [4]: −17% | Ct.Ar [5]: 29.0 (3.7) mm^2/kg | Ct.Th [5]: 3.41 (0.59)^a mm/kg | Es.Ar [5]: 25.6 (3.3) mm^2/kg | Ps.Ar [5]: 54.6 (4.4)^b,c mm^2/kg | BV/TV ([6]; 2.5 nmol/kg s.c. daily 5 days/week): 1.34 %/kg | App. Mn. Dn ([6]; 2.5 nmol/kg s.c.): 2513 ^b mgHA/(cm^3*kg) | Mat. Mn. Dn. ([6]; 2.5 nmol/kg s.c.): 29810 mgHA/(cm^3*kg) | Tb. N ([6]; 2.5 nmol/kg s.c.): 98.7 1/mm*kg | Tb. Sp ([6]; 2.5 nmol/kg s.c.): 9.57 mm/kg | Tb. Th ([6]; 2.5 nmol/kg s.c.): 1.26 mm/kg | rate of carcinogenicity compared to human PTH 1-34 ([2]; rat, in vivo): lower rate of carcinogenicity | caspase-3/7 activity, comparison between peptide groups [7]: lower levels of apoptosis | bone volume fraction / trabecular bone volume [8]: equivalently increase | production of procollagen-1 mRNA [9]: does not

— US8987201B2, “Black bear parathyroid hormone and methods of using black bear parathyroid hormone” (Michigan Technological University, priority 2009, dated 2015)
